These results are taken from publication PMC6277198, “Molecular basis for activation of lecithin:cholesterol acyltransferase by a compound that increases HDL cholesterol” (eLife, 2018).

Assay [1] concerns the target T1, WT LCAT (Homo sapiens, UniProt P04180).
T1 sequence (P04180 25-440): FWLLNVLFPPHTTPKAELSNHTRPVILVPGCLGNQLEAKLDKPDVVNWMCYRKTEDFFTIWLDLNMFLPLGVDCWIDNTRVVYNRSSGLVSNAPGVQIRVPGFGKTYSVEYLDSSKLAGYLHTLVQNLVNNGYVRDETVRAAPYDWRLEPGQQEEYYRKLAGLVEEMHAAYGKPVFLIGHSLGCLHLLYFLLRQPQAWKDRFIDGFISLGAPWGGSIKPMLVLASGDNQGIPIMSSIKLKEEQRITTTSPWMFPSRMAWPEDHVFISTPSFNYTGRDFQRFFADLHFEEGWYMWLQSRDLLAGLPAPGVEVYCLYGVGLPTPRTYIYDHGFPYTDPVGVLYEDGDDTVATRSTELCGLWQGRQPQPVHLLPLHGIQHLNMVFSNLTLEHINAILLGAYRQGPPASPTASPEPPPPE
The assay is described as follows: DHE acyltransferase assay with peptide-based HDLs. The class given is biochemical. Also on record: hydrolysis of 4-methylumbelliferyl palmitate (MUP) by full-length LCAT; made in house; host or cells: HEK293F (transient transfection, secreted). Here is the method:
Peptide-based HDLs were used in this assay as there is no difference between peptide HDLs and ApoA-I HDLs in both HDL binding and acyltransferase assays ([Manthei et al., 2017]). The peptide HDLs were made using the ESP24218 peptide with the sequence […] ([Dassuex et al., 1999]; [Li et al., 2015]) with a DPPC:POPC:DHE ratio of 47:47:6 as previously described ([Manthei et al., 2017]). The assay was performed in 384-well low volume black microplates (Corning 4514) with a total assay volume of 16 μL. In each reaction, LCAT was diluted in assay buffer to 15 μg mL^−1 in the presence of either 1% DMSO or 10 μM 2 with 1% DMSO. Compound 2 was used in this assay because it has lower background fluorescence than 1. The DHE HDLs were diluted in 1X PBS with 1 mM EDTA and 5 mM β-mercaptoethanol. 8 μL of the HDLs were added to the plate, and the reactions were initiated with 8 μL of LCAT, so that LCAT was assayed at 7.5 μg mL^−1 with and without 5 μM compound with a range of DHE concentrations from 0 to 50 μM. The reactions were stopped after 25 min at 37 °C with the addition of 4 μL of stop solution (1X PBS with 1 mM EDTA, 5 U mL^−1 cholesterol oxidase (COx), and 7% Triton X100). Following the addition of stop solution, the plates were incubated for another 60 min at 37 °C to allow for the COx to react. After the plates were re-equilibrated at room temperature, fluorescence was determined on a SpectraMax plate reader with excitation at 325 nm and emission at 425 nm, with a 420 nm cutoff. Reactions without LCAT were used for background subtraction, and reactions without LCAT and stop solution lacking COx were used to generate a standard curve for DHE. Reactions were performed in triplicate with three independent experiments per LCAT variant. Data were processed via background subtraction to remove excess fluorescence that results from the higher concentrations of DHE. […] Outliers were removed using automatic outlier elimination within Prism. For statistical analysis, the Vmax for each variant was compared to WT using a one-way analysis of variance followed by Tukey’s multiple comparisons post-test in GraphPad Prism.
To determine EC50 values, compound 2 was titrated from 0.004 to 10 μM, and the DHE concentration was set at 50 μM. LCAT was diluted in assay buffer and compound 2 dilutions were made with assay buffer containing 5.3% DMSO. 1.5 μL compound was added, then 6.5 μL LCAT, followed by 8 μL DHE. Dilutions were adjusted so that LCAT was assayed at 7.5 μg mL^−1, as above. All values were background subtracted to buffer with the same concentration of compound 2. A standard curve was included in one experiment with DHE from 0 to 50 μM in order to adjust the final fluorescence values to a rate by dividing by the slope of the line and time (25 min), as above. […]

The test system of assay [2] is LCAT Y51S, G71I, and Y51S/G71I variants. The assay is described as follows: Differential scanning fluorimetry. The assay is classed as binding, human. Here is the method: Tm values were determined using an Applied Biosystems QuantStudio 7 Flex qPCR machine with two replicates performed at least in triplicate. LCAT at 0.05 mg mL^−1 was diluted into reaction buffer containing 5X Sypro Orange in a final volume of 10 μL in 384-well PCR plates. DMSO or compound 1 was added so that all reactions contained 3% DMSO. The reactions were run from 25–95 °C with a ramp rate of 0.03 °C s^−1. Tm values were determined as the derivative using Protein Thermal Shift software. Significance was determined using a one-way analysis of variance followed by Tukey’s multiple comparisons post-test in GraphPad Prism.
On the technique in general: DSF heats the sample and reads unfolding from a dye or from intrinsic fluorescence.

Assay [3] has as its target T2, LCAT (Homo sapiens, UniProt P04180).
T2 construct: hydrolysis of 4-methylumbelliferyl palmitate (MUP) by full-length LCAT; made in house; host or cells: HEK293F (transient transfection, secreted)
T2 sequence (P04180 25-440): T1 sequence (P04180 25-440)
The assay is described as follows: Soluble esterase assay (pNPB). The class given is biochemical. The settings on record: WT LCAT. Here is the method:
(§1) The esterase assay was performed as previously described ([Glukhova et al., 2015]) at least in triplicate. pNPB was diluted to 10 mM into reaction buffer containing 10% dimethylsulfoxide. The reaction was started by addition of 40 μL 1 μM LCAT containing either 3.2% DMSO or 11.1 μM compound 1 to 10 μL of pNPB. The increase in absorbance at 400 nm was monitored on a Spectramax plate reader for 15 min. Significance was determined using a one-way analysis of variance followed by Tukey’s multiple comparisons post-test in GraphPad Prism.

Assay [4] has as its system LCAT. The assay is described as follows: Soluble esterase assay (pNPB). The class given is biochemical, human. The settings on record: any variant of LCAT. Here is the method:
as §1

In general, EC50 refers to the concentration needed to bring the measured effect to its halfway point. As for `O=C1CC(O)(C(F)(F)F)c2c(C3CCN(c4cnc(C(F)(F)F)cn4)CC3)n[nH]c2N1` (stereo not shown) [compound 2, 4-Hydroxy-4-(trifluoromethyl)−3-(1-(5-(trifluoromethyl)pyrazin-2-yl)piperidin-4-yl)−4,5-dihydro-1H-pyrazolo[3,4-b]pyridin-6(7H)-one], in assay [1] (WT LCAT, peptide-based HDLs), the “Fold activation, DHE acyltransferase activity” value was determined as 2.8 fold. Besides, in assay [1] (WT LCAT, lowest concentration of compound 2 examined), the acyltransferase rate turned out to be 11 µM/h. In assay [1] (WT, compound 2 titrated from 0.004 to 10 μM, DHE 50 μM), the EC50 came to 280 ± 90 nM. The “Vmax, DHE assay” value in assay [1] (with 5 μM compound 2 (22 without)) was 37 μM DHE-ester hr^−1.
With `N#Cc1cnc(N2CCC(c3n[nH]c4c3C(O)(C(F)(F)F)CC(=O)N4)CC2)cc1C(F)(F)F` (stereo not shown) [compound 1, 6-(4-(4-Hydroxy-6-oxo-4-(trifluoromethyl)−4,5,6,7-tetrahydro-1H-pyrazolo[3,4-b]pyridin-3-yl)piperidin-1-yl)−4-(trifluoromethyl)nicotinonitrile], the “Increase of Tm compared to WT (DSF)” value in assay [2] is “far less effective”. The “Effect on pNPB esterase activity of WT” value in assay [3] is listed as “seemed to inhibit”. Besides, in assay [4], the “Stimulation of pNPB esterase activity” value is reported as “did not stimulate”.
